These results are taken from US20250282768A1 (Janssen Pharmaceutica NV, priority 2022, published 2025).

The subject of the experiment is p-IKKa levels in L363 (NIK translocated multiple myeloma) cells. Nature of the experiment: Assay 2: Effect of compounds on p-IKKa levels in L363 (NIK translocated multiple myeloma) cells. The settings on record: Homo sapiens, L-363, 6 h, read-out: Assay 2 IC50 (nM), p-IKKa (Ser 176/180) in BAFF stimulated L363 cells with MG132, 6 h; average if tested more than once. The experiment is classed as cell-based. Summed up: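 Read-out is p-IKKa Ser176/180 by AlphaLISA SureFire in lysates. Cells were BAFF-primed (250 ng/ml) overnight or left unstimulated, then exposed 6 h at 37 °C to compound with MG132 (10 μM), 0.3% DMSO. IC50 from sigmoidal curve fit, normalized between stimulated and unstimulated controls.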
Regarding `CN1CC[C@@](O)(c2cc(-c3cccc(-c4ccnc(Nc5cnn6c5CCCC6)n4)n3)no2)C1=O` [Example 259, (R)-3-Hydroxy-1-methyl-3-(3-(6-(2-((4,5,6,7-tetrahydropyrazolo[1,5-a]pyridin-3-yl)amino)pyrimidin-4-yl)pyridin-2-yl)isoxazol-5-yl)pyrrolidin-2-one], the IC50 is < 50 nM.

For `COCc1ccnc(Nc2nccc(-c3cccc(-c4cc([C@]5(O)CCN(C)C5=O)on4)n3)n2)c1` [Example 260, (R)-3-Hydroxy-3-(3-(6-(2-((4-(methoxymethyl)pyridin-2-yl)amino)pyrimidin-4-yl)pyridin-2-yl)isoxazol-5-yl)-1-methylpyrrolidin-2-one], the IC50 is < 50 nM.

In the case of `CCn1cc(Nc2nccc(-c3cccc(-c4cc([C@@]5(O)C(=O)N(C)CC5(F)F)on4)n3)n2)cn1` [Example 261, (R)-3-(3-(6-(2-((1-Ethyl-1H-pyrazol-4-yl)amino)pyrimidin-4-yl)pyridin-2-yl)isoxazol-5-yl)-4,4-difluoro-3-hydroxy-1-methylpyrrolidin-2-one], the IC50 is < 50 nM.

Regarding `CN1CC[C@@](O)(c2cc(-c3cccc(-c4ccnc(Nc5cn(C)nc5F)n4)n3)no2)C1=O` [Example 262, (R)-3-(3-(6-(2-((3-Fluoro-1-methyl-1H-pyrazol-4-yl)amino)pyrimidin-4-yl)pyridin-2-yl)isoxazol-5-yl)-3-hydroxy-1-methylpyrrolidin-2-one], the IC50 is < 50 nM.

In the case of `CN1CC[C@@](O)(c2cc(-c3cccc(-c4ccnc(Nc5ccn(C)n5)n4)n3)on2)C1=O` [Example 263, (R)-3-Hydroxy-1-methyl-3-(5-(6-(2-((1-methyl-1H-pyrazol-3-yl)amino)pyrimidin-4-yl)pyridin-2-yl)isoxazol-3-yl)pyrrolidin-2-one], the IC50 is < 50 nM.

`CN1CC[C@@](O)(c2cc(-c3cccc(-c4ccnc(Nc5cnn(C6COC6)c5)n4)n3)no2)C1=O` [Example 264, (R)-3-Hydroxy-1-methyl-3-(3-(6-(2-((1-(oxetan-3-yl)-1H-pyrazol-4-yl)amino)pyrimidin-4-yl)pyridin-2-yl)isoxazol-5-yl)pyrrolidin-2-one]: the IC50 is < 50 nM.

For the molecule `Cc1cnnc(Nc2nccc(-c3cccc(-c4cc([C@]5(O)CCN(C)C5=O)on4)n3)n2)n1` [Example 265, (R)-3-Hydroxy-1-methyl-3-(3-(6-(2-((5-methyl-1,2,4-triazin-3-yl)amino)pyrimidin-4-yl)pyridin-2-yl)isoxazol-5-yl)pyrrolidin-2-one], the IC50 was > 500 nM.

As to `CN1CC[C@@](O)(c2cc(-c3cccc(-c4ccnc(Nc5nc(C6CCOCC6)nn5C)n4)n3)no2)C1=O` [Example 266, (R)-3-Hydroxy-1-methyl-3-(3-(6-(2-((1-methyl-3-(tetrahydro-2H-pyran-4-yl)-1H-1,2,4-triazol-5-yl)amino)pyrimidin-4-yl)pyridin-2-yl)isoxazol-5-yl)pyrrolidin-2-one], the IC50 is > 500 nM.

On to `CN1CC[C@@](O)(c2cc(-c3cccc(-c4ccnc(Nc5nnn(C)n5)n4)n3)no2)C1=O` [Example 267, (R)-3-Hydroxy-1-methyl-3-(3-(6-(2-((2-methyl-2H-tetrazol-5-yl)amino)pyrimidin-4-yl)pyridin-2-yl)isoxazol-5-yl)pyrrolidin-2-one], for which the IC50 lay within 50 to 500 nM.

For `Cc1ccc(O)c(Nc2nccc(-c3cccc(-c4cc([C@]5(O)CCN(C)C5=O)on4)n3)n2)n1` [Example 268, (R)-3-Hydroxy-3-(3-(6-(2-((3-hydroxy-6-methylpyridin-2-yl)amino)pyrimidin-4-yl)pyridin-2-yl)isoxazol-5-yl)-1-methylpyrrolidin-2-one], the IC50 was > 500 nM.

On to `Cc1c(Nc2nccc(-c3cccc(-c4cc([C@]5(O)CCN(C)C5=O)on4)n3)n2)cnn1CC(C)(C)O` [Example 269, (R)-3-Hydroxy-3-(3-(6-(2-((1-(2-hydroxy-2-methylpropyl)-5-methyl-1H-pyrazol-4-yl)amino)pyrimidin-4-yl)pyridin-2-yl)isoxazol-5-yl)-1-methylpyrrolidin-2-one], for which the IC50 is < 50 nM.
